In patent publication US20050075375A1 (priority 2003, published 2005):
Where two headings read alike, the source gives them in different places.

System: monocistronic NK5.1 HCV replicon in Huh7 cells
Experiment: HCV replicon assay, monocistronic replicon cell line
Format: cell-based, hepatitis C virus
Details: Hepatitis C virus, read-out: Mono EC50 Median
Procedure, shortened: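 Huh7 cells carrying the monocistronic NK5.1 replicon, seeded 24 h before dosing, were exposed to six-point half-log compound series (0.6% DMSO) for 3 days at 37 °C. Replicon RNA was quantified by TaqMan RT-PCR, normalised to GAPDH and compared with DMSO controls to derive EC50.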

[1] = Huh-7, 72 h, Table 1, monocistronic replicon in Huh7 cells, 3 days incubation, HCV RNA/GAPDH RNA by TaqMan RT-PCR
[2] = Huh-7, monocistronic NK5.1 HCV replicon in Huh7 cells, median value

COc1ccc(OC)c(-c2nc(-c3ccc(C(F)(F)F)cn3)no2)c1 [Compound 214, 2-[5-(2,5-Dimethoxy-phenyl)-[1,2,4]oxadiazol-3-yl]-5-trifluoromethyl-pyridine]
EC50 [1]: 18 µM
EC50 [2]: 18 µM

O=[N+]([O-])c1cccc(-c2nc(-c3ccc(C(F)(F)F)cn3)no2)c1 [Compound 215, 2-[5-(3-Nitro-phenyl)-[11,2,4]oxadiazol-3-yl]-5-trifluoromethyl-pyridine]
EC50 [1]: 31 µM
EC50 [2]: 31 µM

Oc1ccc(O)c(-c2nc(-c3ccc(C(F)(F)F)cn3)no2)c1 [Compound 217, 2-[3-(5-Trifluoromethyl-pyridin-2-yl)-[1,2,4]oxadiazol-5-yl]-benzene-1,4-diol]
EC50 [1]: 2.1 µM
EC50 [2]: 2.1 µM

Oc1ccc(Cl)cc1-c1nc(-c2ccc(C(F)(F)F)cn2)no1 [Compound 218, 4-Chloro-2-[3-(5-trifluoromethyl-pyridin-2-yl)-[1,2,4]oxadiazol-5-yl]-phenol]
EC50 [1]: 18 µM
EC50 [2]: 18 µM

Oc1ccc(F)cc1-c1nc(-c2ccc(C(F)(F)F)cn2)no1 [Compound 219, 4-Fluoro-2-[3-(5-trifluoromethyl-pyridin-2-yl)-[1,2,4]oxadiazol-5-yl]-phenol]
EC50 [1]: > 32 µM
EC50 [2]: > 32 µM

COc1cccc(-c2nc(-c3ccc(C(F)(F)F)cn3)no2)c1 [Compound 220, 2-[5-(3-Methoxy-phenyl)-[1,2,4]oxadiazol-3-yl]-5-trifluoromethyl-pyridine]
EC50 [1]: > 32 µM
EC50 [2]: > 32 µM

Oc1ccc2ccccc2c1-c1nc(-c2ccc(C(F)(F)F)cn2)no1 [Compound 221, 1-[3-(5-Trifluoromethyl-pyridin-2-yl)-[1,2,4]oxadiazol-5-yl]-naphthalen-2-ol]
EC50 [1]: 4.8 µM
EC50 [2]: 4.8 µM

COc1ccc(-c2nc(-c3ccc(C(F)(F)F)cn3)no2)c(O)c1 [Compound 222, 5-Methoxy-2-[3-(5-trifluoromethyl-pyridin-2-yl)-[1,2,4]oxadiazol-5-yl]-phenol]
EC50 [1]: > 32 µM
EC50 [2]: > 32 µM

Oc1ccccc1-c1nc(-c2ccc(C(F)(F)F)cn2)no1 [Compound 223]
EC50 [1]: 19 µM
EC50 [2]: 19 µM

COc1ccc(O)c(-c2nc(-c3ccc(C(F)(F)F)cn3)no2)c1 [Compound 224, 4-Methoxy-2-[3-(5-trifluoromethyl-pyridin-2-yl)-[1,2,4]oxadiazol-5-yl]-phenol]
EC50 [1]: 3.2 µM
EC50 [2]: 3.2 µM

Cc1ccc(O)c(-c2nc(-c3ccc(C(F)(F)F)cn3)no2)c1 [Compound 225, 4-Methyl-2-[3-(5-trifluoromethyl-pyridin-2-yl)-[1,2,4]oxadiazol-5-yl]-phenol]
EC50 [1]: 7.5 µM
EC50 [2]: 7.5 µM

O=[N+]([O-])c1ccc(Cl)c(-c2nc(-c3ccc(C(F)(F)F)cn3)no2)c1 [Compound 226, 2-[5-(2-Chloro-5-nitro-phenyl)-[1,2,4]oxadiazol-3-yl]-5-trifluoromethyl-pyridine]
EC50 [1]: 4.3 µM
EC50 [2]: 4.3 µM

FC(F)(F)c1ccc(-c2noc(-c3cccc4ccccc34)n2)nc1 [Compound 227, 2-(5-Naphthalen-1-yl-[1,2,4]oxadiazol-3-yl)-5-trifluoromethyl-pyridine]
EC50 [1]: > 32 µM
EC50 [2]: > 32 µM

Oc1ccc(Br)cc1-c1nc(-c2ncccc2-c2ccccc2)no1 [Compound 228, 4-Bromo-2-[3-(3-phenyl-pyridin-2-yl)-[1,2,4]oxadiazol-5-yl]-phenol]
EC50 [1]: 2.2 µM
EC50 [2]: 2.2 µM

Oc1ccc2ccccc2c1-c1nc(-c2ncccc2-c2ccccc2)no1 [Compound 229, 1-[3-(3-Phenyl-pyridin-2-yl)-[1,2,4]oxadiazol-5-yl]-naphthalen-2-ol]
EC50 [1]: > 10 µM
EC50 [2]: > 10 µM

COc1cccc(-c2nc(-c3ncccc3-c3ccccc3)no2)c1O [Compound 230, 2-Methoxy-6-[3-(3-phenyl-pyridin-2-yl)-[1,2,4]oxadiazol-5-yl]-phenol]
EC50 [1]: 9.8 µM
EC50 [2]: 9.8 µM
